For data set [1], the system named is N. fowleri. The data set is described as follows: Amoebicidal assay (trypan blue exclusion) against N. fowleri. The format is cell-based, Naegleria fowleri. Conditions: 50 μM, 24 h; for amoebicidal activity, mean (M): M with SD, azole alone (before conjugation); for percentage cell death (amoebicidal activity): negative control considered as 0%. How it is done:
(§1) N. fowleri cells (ATCC 30174) and B. mandrillaris cells (ATCC 50209) were acquired from American Type Culture Collection and cultivated in RPMI-1640 media supplemented with 1% antibiotics with HeLa cell monolayers used as a feeder layer at 37 °C and 5% CO2 as previously cultured.
(§2) Amoebicidal assays were accomplished as formerly explained. Briefly, 5 × 10^5 amoebae cells were kept for 24 h at 37 °C and 5% CO2 with 50 μM azole compounds. While positive controls used were amphotericin B and ketoconazole, RPMI-1640 alone was used as negative control and respective solvents were used as solvent control. Trypan blue exclusion assay, which consists of using 0.1% trypan blue to differentiate between live (unstained) and dead (stained) cells and count the cells using a haemocytometer.

Data set [2] has as its system B. mandrillaris. The experiment in a line: Amoebicidal assay (trypan blue exclusion) against B. mandrillaris. It is filed as cell-based, Balamuthia mandrillaris. Conditions: 50 μM, 24 h; for amoebicidal activity, mean (M): M with SD, azole alone (before conjugation); for percentage cell death (amoebicidal activity): negative control considered as 0%. How it is done: as §1, §2

Another data set deals with HaCaT cells. The experiment in a line: Cytotoxicity assay (LDH release) against human cells. It is filed as cell-based. Conditions: 50 μM, 24 h, 37 °C. As to the method: Figure 3 Cytotoxic effects of azoles against host cells. Briefly, 50 μM azoles were incubated with HaCaT cells monolayers for 24 h at 37 °C in a 5% CO2 incubator as described in Materials and Methods. […] The data are presented as the mean ± standard error. Cytotoxic effects of the drugs were determined as previously described. 50 μM azole compounds was incubated on HeLa cells for 24 h at 37 °C and 5% CO2 in RPMI-1640 media. The level of lactate dehydrogenase (LDH) enzyme in the RPMI-media which indicates cytotoxic effects of drugs was determined by means of a cytotoxicity detection kit (Roche Applied Science). The percentage cytotoxicity was calculated: [(Absorbance of sample - Absorbance of untreated cells)/(Absorbance for total LDH release - Absorbance of untreated cells)] × 100 = percentage cytotoxicity.
On the technique in general: LDH in the medium is a marker of cell lysis.

For data set [3], the system named is N. fowleri. The data set is described as follows: Amoebistatic assay (growth inhibition on HeLa feeder monolayers) against N. fowleri. Conditions: 24 h; for amoebistatic activity, mean (M): 50 μM, M with SD; for inhibition at 50 µM: Naegleria fowleri, HeLa, compared to untreated cells. It is filed as cell-based, Naegleria fowleri. How it is done: (§3) N. fowleri cells (ATCC 30174) and B. mandrillaris cells (ATCC 50209) were acquired from American Type Culture Collection and cultivated in RPMI-1640 media supplemented with 1% antibiotics with HeLa cell monolayers used as a feeder layer at 37 °C and 5% CO2 as previously cultured. 5 × 10^5 amoebae cells were kept for 24 h at 37 °C and 5% CO2 with 50 μM azole compounds on HeLa monolayers as feeder cells. While positive controls used were amphotericin B and ketoconazole, RPMI-1640 alone was used as negative control and respective solvents were used as solvent control. Trypan blue exclusion assay which consists of using 0.1% trypan blue to distinguish between live (unstained) and dead (stained) cells and count the cells using a haemocytometer.

Data set [4] concerns B. mandrillaris. The data set is described as follows: Amoebistatic assay (growth inhibition on HeLa feeder monolayers) against B. mandrillaris. It is filed as cell-based, Balamuthia mandrillaris. The note with it: 24 h; for amoebistatic activity, mean (M): 50 μM, M with SD; for inhibition at 50 µM: Balamuthia mandrillaris, HeLa, untreated amoebae considered as 0%. How it is done: as §3

Structures are written as SMILES.

Broadly, the inhibition is the drop in the measured response relative to a control, in per cent. Low values mean little suppression, high ones strong suppression. Consider `CC1(C)C/C(=N\NC(N)=S)c2cnn(-c3ccccc3)c2C1` [A4, (E)-2-(6,6-Dimethyl-1-phenyl-1,5,6,7-tetrahydro-4H-indazol-4-4ylidene)hydrazine-1-carbothioamide], for which, in the data set with N. fowleri [1], the “amoebicidal activity, mean (M)” value is 72.34% and the “percentage cell death (amoebicidal activity)” value (from here on “percentage cell death”) amounted to 72%. In the data set with B. mandrillaris [2], the “amoebicidal activity, mean (M)” value is 1.65% and the “percentage cell death” value is recorded as “limited amoebicidal activity”. In the data set with HaCaT cells, this molecule gave a cytotoxicity of 5%. Moreover, in the data set on N. fowleri [3], the “amoebistatic activity, mean (M)” value is 54.70% and at 50 µM the inhibition was 55%. In the data set with B. mandrillaris [4], the “amoebistatic activity, mean (M)” value is on record as 64.98% and testing at 50 µM gave an inhibition of 65%.

Regarding `COc1cc(-c2nc3ccccc3[nH]2)cc(Br)c1OC` [A1, 2-[3-Bromo-4,5-bis(methoxy)phenyl]-1H-benzimidazole], in the data set on N. fowleri [1], the “amoebicidal activity, mean (M)” value was found to be 0% and the “percentage cell death” value is reported as “did not cause amoebicidal activity”. Further, in the data set with B. mandrillaris [2], the “amoebicidal activity, mean (M)” value is listed as 35.62% and the “percentage cell death” value came to 36%. The molecule further gave a cytotoxicity in the data set with HaCaT cells of 41%. The molecule also had an inhibition at 50 µM in the data set on N. fowleri [3] of 20%. Moreover, in the data set on B. mandrillaris [4], the “amoebistatic activity, mean (M)” value is on record as 52.63% and 50 µM produced 53% inhibition.

Take `Clc1cccc(Cc2nnn[nH]2)c1` [A5, 5-(3-Chlorobenzyl)-1H-tetrazole]: the figures for the “amoebicidal activity, mean (M)” value with N. fowleri [1] and in the data set with B. mandrillaris [2] were 66.19% and 64.54%, respectively. In addition, the “percentage cell death” value was determined as 66% with N. fowleri [1] and 65% in the data set on B. mandrillaris [2]. In addition, the cytotoxicity with HaCaT cells is 11%. Moreover, the “amoebistatic activity, mean (M)” value in the data set on N. fowleri [3] amounted to 62.74%; in the data set with B. mandrillaris [4], 51.24%. The inhibition at 50 µM was found to be 63% with N. fowleri [3] and 51% with B. mandrillaris [4].

For the molecule `CC1(C)C/C(=N\NC(=S)Nc2ccccc2Cl)c2cnn(-c3ccccc3)c2C1` [A3, (E)-N-(2-Chlorophenyl)-2-(6,6-dimethyl-1-phenyl-1,5,6,7-tetrahydro-4H-indazol-4-4ylidene)hydrazine-1-carbothioamide], the “percentage cell death” value in the data set with N. fowleri [1] turned out to be 39%. Moreover, in the data set with B. mandrillaris [2], the “amoebicidal activity, mean (M)” value was 23.86% and the “percentage cell death” value is reported as 24%. This molecule came in with a cytotoxicity in the data set with HaCaT cells of 19%. In the data set with N. fowleri [3], the “amoebistatic activity, mean (M)” value was found to be 75.12% and testing at 50 µM gave an inhibition of 75%. In addition, in the data set with B. mandrillaris [4], the “amoebistatic activity, mean (M)” value amounted to 55.62% and 50 µM produced 56% inhibition.

Turning to `c1ccc(-c2nnn[nH]2)cc1` [A6, 5-Phenyl-1H-tetrazole], the “percentage cell death” value in the data set on N. fowleri [1] is 45%. Besides, in the data set on B. mandrillaris [2], the “amoebicidal activity, mean (M)” value stood at 30.58% and the “percentage cell death” value turned out to be 31%. For the same molecule, the cytotoxicity result in the data set with HaCaT cells was “no cytotoxic activities”. Moreover, in the data set on N. fowleri [3], the “amoebistatic activity, mean (M)” value was 66.53% and the inhibition at 50 µM worked out at 67%. Further, in the data set with B. mandrillaris [4], the “amoebistatic activity, mean (M)” value is 70.35% and at 50 µM the inhibition was 70%.

As to `Cc1ccc(-c2nc3ccccc3[nH]2)o1` [A2], the entries for the “percentage cell death” value with N. fowleri [1] and with B. mandrillaris [2] were 31% and “limited amoebicidal activity”, respectively. In addition, the cytotoxicity result with HaCaT cells is “no cytotoxic activities”. The results for the “amoebistatic activity, mean (M)” value with N. fowleri [3] and in the data set with B. mandrillaris [4] were 64.31% and 70.33%, respectively. In addition, the inhibition at 50 µM with N. fowleri [3] was 64%; in the data set on B. mandrillaris [4] it was 70%.

Values taken from article PMC7235764, “Novel Azoles as Antiparasitic Remedies against Brain-Eating Amoebae” (Antibiotics, 2020).
